# Bridge positions count the residues as written; N and C are the ends. Ends that are not written are not given here. Peptide text beside a SMILES is read from it.
# Columns and labels:
# [1] = target: T1, F1-gp120 binding to CD4+ human cells (Human immunodeficiency virus type 1 group M subtype B, UniProt P04578); assay: Inhibition of fluoresceinated gp120 binding to CD4+ cells (flow microfluorimetry); conditions: compound 1 mg
# T1 construct: Recombinant gp-120 was obtained from Raymond Sweet at Smith Kline Beecham and directly fluoresceinated; purchased Raymond Sweet at Smith Kline Beecham (obtained, not a catalogue product); host or cells: CD4+ human cells (Jurkat CD4+)
# Procedure: This assay uses fluoresceinated gp120 and monitors its ability to bind to CD4+.
# Recombinant gp-120 was obtained from Raymond Sweet at Smith Kline Beecham and directly fluoresceinated. Flow microfluorimetry was performed using a FACScan. Chen, et al., (1992) Proc. Nat'l. Acad. Sci. U.S.A., 89:5872-5876; Weiner, et al., (1990) Cancer Detection and Prevention, 14:317-320; and Weiner, et al., (1990) Vaccines, 339-345, discloses the assay was done using the CD4 related synthetic compounds or, separately, monoclonal anti-CD4 antibody as described.
# CD4+ T cells = assay: Blocking of T cell activation by tetanus toxoid (3H-TdR incorporation); format: cell-based; parameters: dose or concentration left out as unconfirmed; conditions: 10^4 T cells + tetanus toxoid, 48 hours
# Procedure: 10^4 blood monocytes were pulsed with […] of tetanus toxoid for
# hours. 10^4 CD4+ T cells were added with the compounds […] in
# a final volume of […] of media. The cells were pulsed with […]
# HTdR and assayed at 48 hours.
# [2] = system: ABA delayed type hypersensitivity; assay: In vivo inflammation: delayed type hypersensitivity to azobenzenearsonate (ABA); parameters: species or system mouse; conditions: 100 μg total dose
# Procedure: The effects of macrocyclics on in vivo inflammation were examined as follows. The effects of cyclic compounds disclosed in Table I on in vivo inflammatory response to Azobenzenearsonate was performed using treated groups of ABA primed normal Balb/c or Va3.1 transgenic mice with either 1) intravenously administered anti-CD4 monoclonal antibodies, 2) intravenously administered anti-class II antibodies, 3) systemically administered soluble forms of the most efficacious constrained macrocyclics 4) intravenously administered ABA coupled mononuclear cells, and 5) control antibodies and control macrocyclics. […]
# The delayed type hypersensitivity assay is performed as follows. Five days after priming a mouse with hapten coupled cells, the hind left footpad is measured using an engineer's caliper (Fowler). […] Twenty four hours later, the degree of swelling is measured in the footpad. […]
# For priming, mice (normal or transgenic with a T-cell receptor that recognizes ABA) are injected subcutaneously in each flank using a 23 g needle with 0.1 ml of ABA- or TNP-coupled spleen cells (3×10^7).Five days later, ear thickness and footpad thickness is measured with a caliper. […] Twenty four hours after challenge, the ears and footpads are measured and the animals sacrificed by cervical dislocation. […]
# sCD4 binding to DRb2 = target: T2, sCD4 binding to DRb2 (Homo sapiens, UniProt P01911); assay: CD4 receptor-DRb2 blocking: 125I-sCD4 binding to immobilized DRb2 peptide
# T2 construct: made in house
# Procedure: The peptidic fragment is first coupled to activated sepharose 4B (0.5 mg of peptide/ml of beads).
# 75 μg of the recombinant soluble CD4 was labelled with 2 mCi of Bolotn Hunter reagent (Dupont/New England Nuclear) in 100 mM sodium borate, pH 8.5, in a volume of 150 μl. The labelled CD4 was separated from the unconjugated reagent on a G-50 Sephadex column containing PBS/0.1% gelatin and stored at -70° C.
# HPLC purified forms of the DRb2 peptide were prepared. The peptide ([…] in 0.1M ammonium bicarbonate, pH 7.8) was immobilized on Falcon microtiter plates by overnight exposure. After washing several times and blocking with 2% BSA in HBSS pH 7.6 for 2 hours we add […] of ^125 I labelled sCD4. After 1 hour at room temperature the wells are washed 5× and the radioactivity counted.
# [3] = system: responder CD4+ T cells + allogeneic cells; assay: Blocking of the mixed lymphocyte response; format: cell-based, human; conditions: .1 mg printed in table line
# Procedure: Responder purified CD4+ T cells were used in a mixed lymphocyte response against completely allogeneic human cells. The compounds were added at 10 μg/ml final concentration. The number of responder cells was 10^5 and the number of stimulators 4×10^5 cells per well.
# HIV-1MN = assay: Syncytium assay, HIV; format: cell-based; conditions: for syncytia: none 100
# Procedure: Chen, et al., (1992) Proc. Nat'l. Acad. Sci. U.S.A., 89:5872-5876; Weiner, et al. (1990) Cancer Detection and Prevention, 14:317-320, discloses Sup T1 cells are used as target cells because of their rapid and high degree of fusion when co-cultured with HIV-1 producing cell lines. Uninfected target cells were assayed by co-culture with HIV-infected cells (H9/IIIB.) Washed, HIV-infected cells are plated in 96-well plates (10^4 cells/well in RPMI 1640+10% FCS) and incubated for 30 min at 37° C. Target cells are then added at 5×10^5 /well and the number of syncytia is qualitatively determined after a 48-hour incubation period. CD4 forms to be tested are added at time 0 or 24 hours after the assay has been initiated. Graded doses are used, controls including random linear peptides are also added independently. sCD4 and antibodies to CD4 are used as positive controls.
# Another neutralization assay which is used in the field is as follows. One hundred TCID50 of HIV-1/IIIB or HIV-1/MN cell-free virus is preincubated with serial dilutions of compounds for 1 hour at 37° C. Following incubation, the pretreated virus was then plated on 4×10^4 MT-2 target cells, for 1 hour at 37° C. The MT-2 cells were then washed 3 times and incubated at 37° C. with 5% CO2. Fusion was evaluated 3 days later quantitatively by counting the number of syncytia per well in triplicate under a phase contrast microscope. The neutralization value (the ability of a compound to inhibit HIV infection 0 Vn/Vo) is calculated by dividing the mean number of syncytia per well following treatment with specific antiserum by the mean number of syncytia per well without antiserum (see: Montefiori, et al., (1988) J. Clin. Microbiol., 26:231-235).
molecule,measurement,setting,value
"CC(C)C[C@@H]1NC(=O)[C@H](Cc2ccccc2)NC(=O)[C@H](CO)NC(=O)CNC(=O)[C@H](CCC(N)=O)NC(=O)[C@H](CC(N)=O)NC(=O)[C@@H](NC(=O)[C@@H](N)Cc2ccc(O)cc2)CSSC[C@@H](C(=O)N[C@@H](Cc2ccc(O)cc2)C(=O)O)NC1=O [SEQ ID NO:1, Y, C, N, Q, G, S, F, L, C, Y] (H-YCNQGSFLCY-OH; disulfide 2-9)",% Inhibition,[1],33%
same,% response,CD4+ T cells,77%
"C[C@@H](O)[C@@H]1NC(=O)[C@@H](NC(=O)[C@@H](N)Cc2ccccc2)CSSC[C@@H](C(=O)N[C@@H](Cc2ccc(O)cc2)C(=O)O)NC(=O)[C@H](CCCCN)NC(=O)[C@H](CO)NC(=O)[C@@H]2CCCN2C(=O)CNC(=O)[C@H](CCCCN)NC1=O [SEQ ID NO:3, F, C, T, K, G, P, S, K, C, Y] (H-FCTKGPSKCY-OH; disulfide 2-9)",% Inhibition,[1],83%
"CC(C)[C@@H]1NC(=O)[C@H](CCC(=O)O)NC(=O)[C@@H](NC(=O)[C@@H](N)Cc2ccccc2)CSSC[C@@H](C(=O)N[C@@H](Cc2ccc(O)cc2)C(=O)O)NC(=O)[C@H](CCC(=O)O)NC(=O)[C@H](CCCCN)NC(=O)[C@H](CCC(N)=O)NC(=O)[C@H](CC(=O)O)NC(=O)[C@H](CCC(=O)O)NC1=O [SEQ ID NO:8, F, C, E, V, E, D, Q, K, E, C, Y] (H-FCEVEDQKECY-OH; disulfide 2-10)",% Inhibition,[1],83%
"CC(C)C[C@@H]1NC(=O)[C@@H](NC(=O)[C@@H](N)Cc2ccccc2)CSSC[C@@H](C(=O)N[C@@H](Cc2ccc(O)cc2)C(=O)O)NC(=O)[C@H](CC(C)C)NC(=O)[C@H](C(C)C)NC(=O)[C@H](CCC(N)=O)NC(=O)CNC(=O)[C@H](CO)NC(=O)[C@H](CC(=O)O)NC(=O)[C@H](CO)NC1=O [SEQ ID NO:9, F, C, L, S, D, S, G, Q, V, L, C, Y] (H-FCLSDSGQVLCY-OH; disulfide 2-11)",% Inhibition,[1],8%
same,% response,CD4+ T cells,100%
CDR2R: macrocyclic compound modeled to bind to the reovirus receptor on activated T cells; probably SEQ ID NO:10 (FKTNKCIYSGSTCQF; disulfide 6-13 (inferred)),reducing in vivo delayed type hypersensitivity to ABA,[2],efficacious
"F, C, Y, I, C, E, V, E, D, Q, C, Y (FCYICEVEDQCY; also: cyclized, ring type and places not given here) [SEQ ID NO:7, CD4, 84-91 cyclized, CDR3-like, Human]",% Inhibition,[1],75%
same,Mean Channel Fluorescence,"[1]; none 21, background 9",12
same,% response,CD4+ T cells,55%
same,3H-TdR incorporation (cpm),"CD4+ T cells; none 45,090 cpm","25,000 cpm"
same,% inhibition of sCD4 binding,"sCD4 binding to DRb2; .1 mg compound, first experiment",48%
same,Bound CD4 (cpm),"sCD4 binding to DRb2; .1 mg compound, first experiment (none 3600, no DRb2 1100)",2400 cpm
same,% inhibition of sCD4 binding,"sCD4 binding to DRb2; .5 mg compound, first experiment",88%
same,Bound CD4 (cpm),"sCD4 binding to DRb2; .5 mg compound, first experiment (none 3600, no DRb2 1100)",1400 cpm
same,% inhibition of sCD4 binding,"sCD4 binding to DRb2; Experiment 2, amount not given",100%
same,Bound CD4 (cpm),"sCD4 binding to DRb2; Experiment 2, amount not printed (none 2000, no DRb2 1100)",800 cpm
same,% inhibition of MLR,[3],48%
same,(cpm),"[3]; control 85,000","55,000 cpm"
same,% protection from syncytia,HIV-1MN; 6.125 μg,48%
same,syncytia,HIV-1MN; 6.125 μg,35
same,% protection from syncytia,HIV-1MN; 12.5 μg,88%
same,syncytia,HIV-1MN; 12.5 μg,15
